This is an account of results in patent publication US7982043B2, “Protein tyrosine kinase enzyme inhibitors” (Wyeth LLC, priority 2003, dated 2011).

One assay concerns the target T1, Her-2 (Homo sapiens, UniProt P04626).
T1 construct: For Her-2 and EGFR phosphorylation assays, cells (BT474 and A431, respectively) were incubated with various concentrations of compound; endogenous in cells; host or cells: BT474
Kind of assay: Her-2 receptor phosphorylation in BT474 cells (immunoblot). It is filed as cell-based.

The test system of the next assay is 3T3 cells. Kind of assay: Cell proliferation assay (SRB), 3T3. The assay is classed as cell-based, mouse. The conditions noted are these: for IC50: Mus musculus.
Assay [1] concerns the target T2, recombinant cytoplasmic domain of HER-2 (Homo sapiens, UniProt P04626).
T2 construct: In a cell-free autophosphorylation assay using the recombinant cytoplasmic domain of HER-2
Kind of assay: Cell-free autophosphorylation kinase assay (ELISA), HER-2. The assay is classed as biochemical.

Assay [2] has as its target T3, EGFR (Homo sapiens, UniProt P00533). Kind of assay: EGFR receptor phosphorylation in A431 cells (immunoblot). It is filed as cell-based. Details: They also repressed EGF-dependent phosphorylation of EGFR in A431 cells; endogenous in cells; host or cells: A431. The following applies: for IC50 receptor phosphorylation A431: EGFR phosphorylation, 3 hours at 37° C., immunoblot; for IC50: span over the three compounds, read-out: EGF-dependent phosphorylation of EGFR in A431 cells IC50.
Target sequence in this assay (P00533 25-1210): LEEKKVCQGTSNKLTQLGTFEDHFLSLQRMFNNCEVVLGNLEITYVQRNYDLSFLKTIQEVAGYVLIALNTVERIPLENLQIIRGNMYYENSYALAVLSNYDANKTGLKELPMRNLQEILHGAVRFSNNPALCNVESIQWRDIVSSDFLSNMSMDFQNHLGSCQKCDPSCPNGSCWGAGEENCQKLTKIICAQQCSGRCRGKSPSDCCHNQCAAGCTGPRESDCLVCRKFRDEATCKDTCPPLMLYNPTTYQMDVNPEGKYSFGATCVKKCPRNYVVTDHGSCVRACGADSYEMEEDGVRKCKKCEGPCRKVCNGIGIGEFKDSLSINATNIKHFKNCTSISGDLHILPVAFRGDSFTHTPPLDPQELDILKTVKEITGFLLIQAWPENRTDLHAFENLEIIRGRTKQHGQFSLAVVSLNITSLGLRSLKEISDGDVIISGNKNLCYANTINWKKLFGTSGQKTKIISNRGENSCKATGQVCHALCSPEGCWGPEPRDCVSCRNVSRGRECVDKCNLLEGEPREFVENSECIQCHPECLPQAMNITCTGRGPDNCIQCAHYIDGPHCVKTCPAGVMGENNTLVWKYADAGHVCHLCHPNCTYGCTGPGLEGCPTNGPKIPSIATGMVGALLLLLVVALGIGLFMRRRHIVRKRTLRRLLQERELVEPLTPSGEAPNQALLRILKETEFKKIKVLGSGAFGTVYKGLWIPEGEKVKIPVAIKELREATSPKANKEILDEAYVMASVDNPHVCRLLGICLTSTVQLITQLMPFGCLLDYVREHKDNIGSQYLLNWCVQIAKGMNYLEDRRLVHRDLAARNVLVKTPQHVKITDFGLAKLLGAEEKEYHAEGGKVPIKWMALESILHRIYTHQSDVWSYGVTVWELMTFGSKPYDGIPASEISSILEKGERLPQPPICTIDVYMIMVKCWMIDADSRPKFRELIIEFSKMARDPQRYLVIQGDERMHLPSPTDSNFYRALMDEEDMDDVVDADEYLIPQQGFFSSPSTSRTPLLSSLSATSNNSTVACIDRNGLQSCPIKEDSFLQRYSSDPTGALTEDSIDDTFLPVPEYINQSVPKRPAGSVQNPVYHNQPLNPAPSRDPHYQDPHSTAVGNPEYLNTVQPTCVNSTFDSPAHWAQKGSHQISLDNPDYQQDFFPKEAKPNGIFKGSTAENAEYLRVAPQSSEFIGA

A further assay has as its system BT474 cells. The assay is described as follows: Cell proliferation assay (SRB), BT474. It is filed as cell-based, human. The following applies: for IC50: Homo sapiens, BT-474, 144 h, read-out: CELL IC50 BT474.
Another assay concerns A431 cells. Kind of assay: Cell proliferation assay (SRB), A431. The assay is classed as cell-based. The conditions noted are these: Homo sapiens, A-431, 48 h, read-out: CELL IC50 A431.
For assay [3], the target named is T3, EGFR. Kind of assay: Cell-free autophosphorylation kinase assay (ELISA), EGFR. The assay is classed as biochemical. Details: Purified recombinant C-terminal fragment of each enzyme is incubated with ATP. The conditions noted are these: read-out: Enzyme IC50 EGFR (converted).
Target sequence in this assay (P00533 669-1210 limits assumed): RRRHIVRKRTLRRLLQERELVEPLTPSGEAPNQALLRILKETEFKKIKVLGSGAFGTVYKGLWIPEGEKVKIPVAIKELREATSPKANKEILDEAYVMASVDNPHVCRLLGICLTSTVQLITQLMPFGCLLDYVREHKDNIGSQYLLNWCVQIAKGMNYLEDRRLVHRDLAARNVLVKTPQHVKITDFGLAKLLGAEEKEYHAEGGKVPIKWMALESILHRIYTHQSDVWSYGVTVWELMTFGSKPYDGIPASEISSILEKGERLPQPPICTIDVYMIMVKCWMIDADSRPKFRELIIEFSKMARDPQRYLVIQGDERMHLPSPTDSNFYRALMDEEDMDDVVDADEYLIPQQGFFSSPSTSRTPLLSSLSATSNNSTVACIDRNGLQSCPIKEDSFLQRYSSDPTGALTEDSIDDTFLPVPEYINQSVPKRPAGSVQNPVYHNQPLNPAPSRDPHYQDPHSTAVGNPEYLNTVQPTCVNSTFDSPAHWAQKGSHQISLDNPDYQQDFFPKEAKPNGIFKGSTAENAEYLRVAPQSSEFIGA
The subject of a further assay is SW620 cells. The assay is described as follows: Cell proliferation assay (SRB), SW620. The assay is classed as cell-based. The conditions noted are these: for IC50: Homo sapiens, SW-620, 48 h, read-out: CELL IC50 SW620.
Another assay relates to MDA-MB-435 cells. Kind of assay: Cell proliferation assay (SRB), MDA-MB-435. The assay is classed as cell-based. The conditions noted are these: for IC50: Homo sapiens, MDA-MB-435, 48 h, read-out: CELL IC50 MDA-MB-435.
Assay [4] addresses mouse fibroblast cell line transfected with the HER-2 oncogene (3T3/neu) (UniProt P04626, cells depend on it, species not given). The assay is described as follows: Cell proliferation assay (SRB), 3T3/neu. The assay is classed as cell-based.
Another assay has as its system SK-Br-3 cells. The assay is described as follows: Cell proliferation assay (SRB), SK-Br-3. It is filed as cell-based. The following applies: for IC50: Homo sapiens, SK-BR-3, 48 h, read-out: CELL IC50 SKBr3.
In the next assay the test system is BT474 xenografts. The assay is described as follows: BT474 tumor xenograft in nude mice. It is filed as in vivo, mouse. The following applies: day 21.
In assay [5] the test system is xenografts of 3T3/neu cells. Kind of assay: 3T3/neu tumor xenograft in nude mice. The assay is classed as in vivo, mouse. The following applies: for tumor growth inhibition: day 21.
The subject of assay [6] is HER-2 overexpressing human xenograft models. Kind of assay: HER-2 overexpressing human xenograft models (overall). The assay is classed as in vivo, mouse. The following applies: for MED in the HER-2 overexpressing human xenograft models: mouse, in vivo.
The test system of the next assay is xenografts of SK-OV-3. The assay is described as follows: SK-OV-3 tumor xenograft in nude mice. The following applies: day 35. It is filed as in vivo, mouse.
Another assay relates to xenografts of SUM-190. Kind of assay: SUM-190 tumor xenograft in nude mice. The following applies: 40 mg/kg/day PO, day 28. It is filed as in vivo, mouse.
Where [7] appears, read: Her-2 phosphorylation, 3 hours at 37° C., immunoblot, read-out: IC50 receptor phosphorylation BT474 (converted).
The mark [8] stands for this setting: ligand-independent receptor phosphorylation decreased by 50% (IC50) in BT474 cells, span over the three compounds.
[9] abbreviates: NIH3T3, 48 h, EGFR −, Her-2 −, 2 days, SRB, read-out: CELL IC50 3T3.
[10] abbreviates: NIH3T3, span over the three compounds, read-out: IC50 isogenic untransfected cells (3T3).
[11] abbreviates: HER-2 enzyme activity reduced by 50% (IC50), span over the three inhibitors.
[12] abbreviates: EGFR −, Her-2 +++, 2 days, SRB, read-out: CELL IC50 3T3/NEU (converted).

Values after ≈ are worked out from the molar mass of the structure shown. Where two headings read alike, the source gives them in different places.

T2 sequence (P04626 676-1255 limits assumed): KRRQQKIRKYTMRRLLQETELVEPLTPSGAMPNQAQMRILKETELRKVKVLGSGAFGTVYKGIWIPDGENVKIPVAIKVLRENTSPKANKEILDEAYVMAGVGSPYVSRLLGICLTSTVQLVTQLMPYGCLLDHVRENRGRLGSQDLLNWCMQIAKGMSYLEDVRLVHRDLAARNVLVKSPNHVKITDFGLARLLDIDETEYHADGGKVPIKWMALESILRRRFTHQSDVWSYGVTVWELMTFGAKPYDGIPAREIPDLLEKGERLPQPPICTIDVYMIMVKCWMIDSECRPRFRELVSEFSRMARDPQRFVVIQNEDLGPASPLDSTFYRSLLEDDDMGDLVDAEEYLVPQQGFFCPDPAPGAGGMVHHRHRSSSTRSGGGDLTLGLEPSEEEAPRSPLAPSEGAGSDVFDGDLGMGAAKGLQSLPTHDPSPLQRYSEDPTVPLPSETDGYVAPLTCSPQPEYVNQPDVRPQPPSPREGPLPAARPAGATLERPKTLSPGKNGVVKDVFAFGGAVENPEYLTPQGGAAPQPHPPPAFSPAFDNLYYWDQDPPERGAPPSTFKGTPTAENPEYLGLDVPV
T1 sequence (P04626 23-1255): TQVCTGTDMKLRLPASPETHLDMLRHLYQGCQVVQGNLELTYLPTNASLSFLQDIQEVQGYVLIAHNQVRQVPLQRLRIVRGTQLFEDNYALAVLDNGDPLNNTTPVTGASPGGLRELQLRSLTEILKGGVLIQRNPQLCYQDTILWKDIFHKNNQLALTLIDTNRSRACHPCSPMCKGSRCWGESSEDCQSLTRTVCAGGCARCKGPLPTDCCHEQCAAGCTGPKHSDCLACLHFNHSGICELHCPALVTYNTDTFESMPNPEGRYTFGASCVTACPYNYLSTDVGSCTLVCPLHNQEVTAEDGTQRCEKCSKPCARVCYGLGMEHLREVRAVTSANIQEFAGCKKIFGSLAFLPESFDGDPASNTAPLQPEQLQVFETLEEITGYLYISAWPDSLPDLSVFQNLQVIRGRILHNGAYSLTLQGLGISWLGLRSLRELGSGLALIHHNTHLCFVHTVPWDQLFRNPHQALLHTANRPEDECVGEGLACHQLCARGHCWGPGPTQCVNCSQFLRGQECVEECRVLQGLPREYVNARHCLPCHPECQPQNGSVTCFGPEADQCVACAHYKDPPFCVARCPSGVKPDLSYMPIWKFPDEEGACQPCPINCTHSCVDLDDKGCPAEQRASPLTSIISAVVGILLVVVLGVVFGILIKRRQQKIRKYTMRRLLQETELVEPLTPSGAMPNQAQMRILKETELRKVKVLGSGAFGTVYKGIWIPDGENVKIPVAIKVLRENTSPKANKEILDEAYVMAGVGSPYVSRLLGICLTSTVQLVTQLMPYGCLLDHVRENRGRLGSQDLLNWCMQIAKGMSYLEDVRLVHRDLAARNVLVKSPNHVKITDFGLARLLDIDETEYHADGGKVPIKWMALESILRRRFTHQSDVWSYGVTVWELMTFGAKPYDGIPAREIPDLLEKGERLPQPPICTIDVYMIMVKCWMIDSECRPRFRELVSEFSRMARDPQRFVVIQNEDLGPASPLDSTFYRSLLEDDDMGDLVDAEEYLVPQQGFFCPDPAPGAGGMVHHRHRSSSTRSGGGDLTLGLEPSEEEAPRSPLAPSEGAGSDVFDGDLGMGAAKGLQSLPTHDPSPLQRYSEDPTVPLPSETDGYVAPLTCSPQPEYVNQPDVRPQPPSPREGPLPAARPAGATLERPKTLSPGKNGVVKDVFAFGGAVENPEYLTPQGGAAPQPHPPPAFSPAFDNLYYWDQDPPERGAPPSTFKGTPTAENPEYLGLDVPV

In the case of `CCOc1cc2ncc(C#N)c(Nc3ccc(OCc4ccccc4)c(Cl)c3)c2cc1NC(=O)/C=C/CN(C)C` [Example 1, (E)-N-{4-[4-(benzyloxy)-3-chloroanilino]-3-cyano-7-ethoxy-6-quinolinyl}-4-(dimethylamino)-2-butenamide], the IC50 on Her-2 (setting [7]) was 0.0135 µM; at Her-2 (setting [8]), 0.005 to 0.023 µM; in the assay with 3T3 cells (setting [9]), 0.38 µg/mL; in the assay on 3T3 cells (setting [10]) it was 0.683 to 0.906 µM; in assay [1] (setting [11]) it was 0.033 to 0.065 µM; in [1] (autophosphorylation, ELISA, read-out: Enzyme IC50 HER-2 (converted)), 0.0647 µM. The IC50 at EGFR [2] is 0.003 to 0.007 µM; in the assay with BT474 cells (EGFR +, Her-2 +++, 6 days, SRB), 0.0014 µg/mL (≈ 0.00252 µM); in the assay on A431 cells (EGFR +++, Her-2 +, 2 days, SRB), 0.062 µg/mL (≈ 0.111 µM); on EGFR [3] it was 0.0504 µM; with SW620 cells (EGFR −, Her-2 −, 2 days, SRB) it was 0.24 µg/mL (≈ 0.432 µM); in the assay on MDA-MB-435 cells (EGFR −, Her-2 −, 2 days, SRB) it was 0.47 µg/mL (≈ 0.845 µM). Besides, in the assay on SK-Br-3 cells (EGFR −, Her-2 +++, 2 days, SRB), the IC50 amounted to 0.0015 µg/mL (≈ 0.0027 µM). For the same compound, in [1], the “inhibition of the HER-2 enzyme (in words)” value (“inhibition … (in words)” for short) is recorded as “potent inhibitors”. The “IC50 receptor phosphorylation A431” value against EGFR [2] was found to be 0.0031 µg/mL (≈ 0.00557 µM). Further, the GI50 in assay [4] (setting [12]) is 0.00522 µM.
In the case of `CCOc1cc2ncc(C#N)c(Nc3ccc(OCc4ccccn4)c(Cl)c3)c2cc1NC(=O)/C=C/CN(C)C` [Example 2, (E)-N-{4-[3-chloro-4-(2-pyridinylmethoxy)anilino]-3-cyano-7-ethoxy-6-quinolinyl}-4-(dimethylamino)-2-butenamide], the IC50 in the assay with 3T3 cells (NIH3T3, 48 h, read-out: CELL IC50 3T3) is 0.39 µg/mL; in the assay on 3T3 cells (NIH3T3, read-out: IC50 isogenic untransfected cells (3T3)) it was 0.683 to 0.906 µM; in the assay on BT474 cells it was 0.0013 µg/mL (≈ 0.00233 µM); with A431 cells it was 0.045 µg/mL (≈ 0.0808 µM); in the assay with SW620 cells it was 0.44 µg/mL (≈ 0.79 µM); with MDA-MB-435 cells it was 0.44 µg/mL (≈ 0.79 µM). Also, in the assay on SK-Br-3 cells, the IC50 was 0.001 µg/mL (≈ 0.0018 µM). Besides, the “inhibition … (in words)” value in [1] is recorded as “potent inhibitors”. The results for the “maximum tumor growth inhibition” value with BT474 xenografts (10 mg/kg/day PO) and in the assay with BT474 xenografts (40 mg/kg/day PO) were 76% and 95%, respectively. For the same compound, the values for the tumor growth inhibition in assay [5] (20 mg/kg/day PO), in assay [5] (40 mg/kg/day PO) and in [5] (80 mg/kg/day PO) were 53%, 95% and 98%, respectively. Also, the “MED in the HER-2 overexpressing human xenograft models” value in assay [6] was about 10 mg/kg/day. Also, the GI50 in assay [4] (read-out: CELL IC50 3T3/NEU, mouse fibroblast cell line transfected with the her-2 oncogene (3t3/neu)) is 0.00323 µM.
For the compound `CCOc1cc2ncc(C#N)c(Nc3ccc(OCc4cccc(F)c4)c(Cl)c3)c2cc1NC(=O)/C=C/CN(C)C` [Example 3, (E)-N-(4-{3-chloro-4-[(3-fluorobenzyl)oxy]anilino}-3-cyano-7-ethoxy-6-quinolinyl)-4-(dimethylamino)-2-butenamide], the IC50 at Her-2 (setting [7]) was 0.0226 µM; at Her-2 (setting [8]) it was 0.005 to 0.023 µM; with 3T3 cells (setting [9]), 0.52 µg/mL; with 3T3 cells (setting [10]) it was 0.683 to 0.906 µM; in assay [1] (setting [11]) it was 0.033 to 0.065 µM; on EGFR [2], 0.003 to 0.007 µM. Moreover, the IC50 in the assay on BT474 cells (EGFR +, Her-2 +++, 6 days, SRB) was 0.0024 µg/mL (≈ 0.00418 µM); in the assay with A431 cells (EGFR +++, Her-2 +, 2 days, SRB), 0.069 µg/mL (≈ 0.12 µM); at EGFR [3] it was 0.0331 µM; in the assay with SW620 cells (EGFR −, Her-2 −, 2 days, SRB) it was 0.29 µg/mL (≈ 0.505 µM); in the assay with MDA-MB-435 cells (EGFR −, Her-2 −, 2 days, SRB) it was 0.51 µg/mL (≈ 0.888 µM); in the assay on SK-Br-3 cells (EGFR −, Her-2 +++, 2 days, SRB) it was 0.0015 µg/mL (≈ 0.00261 µM). Further, the tumor growth inhibition came out at 86% with xenografts of SK-OV-3 (20 mg/kg/day PO); 91% in the assay on xenografts of SK-OV-3 (60 mg/kg/day PO); 65% in assay [5] (20 mg/kg/day PO); 97% in assay [5] (40 mg/kg/day PO); 99% in [5] (80 mg/kg/day PO); 94% with xenografts of SUM-190. Also, the “inhibition … (in words)” value in [1] was “potent inhibitors”. Moreover, the “Enzyme IC50 HER-2” value in assay [1] (autophosphorylation, ELISA) was found to be 0.019 µg/mL. Further, at EGFR [2], the “IC50 receptor phosphorylation A431” value was 0.0042 µg/mL (≈ 0.00732 µM). Also, the “maximum tumor growth inhibition” value in the assay with BT474 xenografts (10 mg/kg/day PO) is 59%; in the assay with BT474 xenografts (40 mg/kg/day PO), 96%. The “tumor growth inhibition, statistically-significant” value in assay [5] (10 mg/kg/day PO, two other independent tests) was 21-33%. Also, the “minimum efficacious dose (MED)” value in assay [5] (smallest dose with sustained, statistically-significant (p<0.05) reduction of tumor growth) is 10 mg/kg/day. Further, the “tumor behaviour after treatment was completed (in words)” value in assay [6] (after end of treatment) is listed as “evidence of re-growth”. In addition, in [6] (during dosing), the “tumor regression (in words)” value is “no decrease in tumor size below the initial size”. Besides, the “MED in the HER-2 overexpressing human xenograft models” value in assay [6] was 10 mg/kg/day. Besides, the GI50 in assay [4] (setting [12]) was 0.00401 µM.
For `CCOc1cc2ncc(C#N)c(Nc3ccc(F)c(Cl)c3)c2cc1NC(=O)C=CCN(C)C` [Example 20, 4-Dimethyl-but-2-enoic acid [4-(3-chloro-4-fluoro-phenylamino)-3-cyano-7-ethoxy-quinolin-6-yl]-amide], on Her-2 (Her-2 phosphorylation, 3 hours at 37° C., immunoblot), the “IC50 receptor phosphorylation BT474” value came to 0.080 µg/mL (≈ 0.171 µM). The “CELL IC50 3T3” value in the assay with 3T3 cells (EGFR −, Her-2 −, 2 days, SRB) was found to be 0.26 µg/mL. Further, the “inhibition … (in words)” value in assay [1] is recorded as “is not”. For the same compound, in assay [1] (autophosphorylation, ELISA), the “Enzyme IC50 HER-2” value was found to be 0.58 µg/mL. In addition, in the assay with BT474 cells (EGFR +, Her-2 +++, 6 days, SRB), the “CELL IC50 BT474” value is 0.020 µg/mL. In addition, the “CELL IC50 SW620” value with SW620 cells (EGFR −, Her-2 −, 2 days, SRB) was 0.32 µg/mL. In addition, the “CELL IC50 MDA-MB-435” value in the assay on MDA-MB-435 cells (EGFR −, Her-2 −, 2 days, SRB) is 0.34 µg/mL. Besides, in the assay with SK-Br-3 cells (EGFR −, Her-2 +++, 2 days, SRB), the “CELL IC50 SKBr3” value turned out to be 0.0071 µg/mL.
